What all share (assay): DNA-dependent ATPase assay
Common to all, as to type: biochemical

For experiment [1], the target named is SMARCA4 (Homo sapiens, UniProt P51532).
The target of experiment [2] is SMARCA2 (Homo sapiens, UniProt P51531).
Experiment [3] addresses CHD4 (Homo sapiens, UniProt Q14839).

The structures appear in SMILES notation. Read-outs that look alike come from different tables or passages of the source. Where only a bound is given, the exact number is not on record here.

As a reminder, the IC50 is the midpoint of a concentration-inhibition curve. Read a low IC50 as greater potency in that assay.

Sequence of SMARCA4 (P51532 whole entry): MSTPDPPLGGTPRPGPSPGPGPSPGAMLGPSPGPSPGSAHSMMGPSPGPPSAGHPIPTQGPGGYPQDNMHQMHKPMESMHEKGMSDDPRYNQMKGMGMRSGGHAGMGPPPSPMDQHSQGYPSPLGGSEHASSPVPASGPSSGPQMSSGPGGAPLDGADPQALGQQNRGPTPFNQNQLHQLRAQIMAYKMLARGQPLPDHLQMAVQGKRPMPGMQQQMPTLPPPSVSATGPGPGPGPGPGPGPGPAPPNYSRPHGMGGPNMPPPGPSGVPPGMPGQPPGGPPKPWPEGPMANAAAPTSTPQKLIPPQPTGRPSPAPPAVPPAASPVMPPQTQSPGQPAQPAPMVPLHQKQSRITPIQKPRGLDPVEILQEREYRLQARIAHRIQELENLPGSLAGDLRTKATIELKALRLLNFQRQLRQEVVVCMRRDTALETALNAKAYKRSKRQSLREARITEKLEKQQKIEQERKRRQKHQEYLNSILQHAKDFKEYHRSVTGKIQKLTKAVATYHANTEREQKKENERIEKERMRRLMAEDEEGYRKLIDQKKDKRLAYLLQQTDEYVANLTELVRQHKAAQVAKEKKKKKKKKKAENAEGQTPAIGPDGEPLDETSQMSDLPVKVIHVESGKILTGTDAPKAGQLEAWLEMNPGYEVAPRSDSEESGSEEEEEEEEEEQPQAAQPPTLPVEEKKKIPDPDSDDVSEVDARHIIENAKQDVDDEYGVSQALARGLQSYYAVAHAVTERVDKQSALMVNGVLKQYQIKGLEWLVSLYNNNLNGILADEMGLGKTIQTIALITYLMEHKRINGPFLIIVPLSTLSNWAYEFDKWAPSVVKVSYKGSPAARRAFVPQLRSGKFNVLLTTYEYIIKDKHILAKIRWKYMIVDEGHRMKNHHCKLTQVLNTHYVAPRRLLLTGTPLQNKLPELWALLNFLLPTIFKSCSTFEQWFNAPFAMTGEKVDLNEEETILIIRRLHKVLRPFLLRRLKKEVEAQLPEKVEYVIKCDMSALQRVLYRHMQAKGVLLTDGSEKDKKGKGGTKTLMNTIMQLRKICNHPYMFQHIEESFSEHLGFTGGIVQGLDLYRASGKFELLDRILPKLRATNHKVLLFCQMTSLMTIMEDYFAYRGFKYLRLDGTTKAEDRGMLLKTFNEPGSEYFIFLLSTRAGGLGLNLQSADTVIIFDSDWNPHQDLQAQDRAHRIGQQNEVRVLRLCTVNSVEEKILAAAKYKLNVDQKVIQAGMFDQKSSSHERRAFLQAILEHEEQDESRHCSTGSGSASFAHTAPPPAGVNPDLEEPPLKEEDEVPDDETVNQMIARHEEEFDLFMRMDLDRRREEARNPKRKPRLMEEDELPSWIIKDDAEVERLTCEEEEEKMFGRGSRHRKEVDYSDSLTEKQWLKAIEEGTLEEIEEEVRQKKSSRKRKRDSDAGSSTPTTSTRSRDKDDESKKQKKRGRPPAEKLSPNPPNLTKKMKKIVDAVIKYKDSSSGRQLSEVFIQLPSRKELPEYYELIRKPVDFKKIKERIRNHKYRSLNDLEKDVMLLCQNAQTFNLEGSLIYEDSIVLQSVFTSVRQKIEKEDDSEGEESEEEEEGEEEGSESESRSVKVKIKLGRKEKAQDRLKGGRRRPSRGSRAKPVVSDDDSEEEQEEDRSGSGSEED
Sequence of SMARCA2 (P51531 whole entry): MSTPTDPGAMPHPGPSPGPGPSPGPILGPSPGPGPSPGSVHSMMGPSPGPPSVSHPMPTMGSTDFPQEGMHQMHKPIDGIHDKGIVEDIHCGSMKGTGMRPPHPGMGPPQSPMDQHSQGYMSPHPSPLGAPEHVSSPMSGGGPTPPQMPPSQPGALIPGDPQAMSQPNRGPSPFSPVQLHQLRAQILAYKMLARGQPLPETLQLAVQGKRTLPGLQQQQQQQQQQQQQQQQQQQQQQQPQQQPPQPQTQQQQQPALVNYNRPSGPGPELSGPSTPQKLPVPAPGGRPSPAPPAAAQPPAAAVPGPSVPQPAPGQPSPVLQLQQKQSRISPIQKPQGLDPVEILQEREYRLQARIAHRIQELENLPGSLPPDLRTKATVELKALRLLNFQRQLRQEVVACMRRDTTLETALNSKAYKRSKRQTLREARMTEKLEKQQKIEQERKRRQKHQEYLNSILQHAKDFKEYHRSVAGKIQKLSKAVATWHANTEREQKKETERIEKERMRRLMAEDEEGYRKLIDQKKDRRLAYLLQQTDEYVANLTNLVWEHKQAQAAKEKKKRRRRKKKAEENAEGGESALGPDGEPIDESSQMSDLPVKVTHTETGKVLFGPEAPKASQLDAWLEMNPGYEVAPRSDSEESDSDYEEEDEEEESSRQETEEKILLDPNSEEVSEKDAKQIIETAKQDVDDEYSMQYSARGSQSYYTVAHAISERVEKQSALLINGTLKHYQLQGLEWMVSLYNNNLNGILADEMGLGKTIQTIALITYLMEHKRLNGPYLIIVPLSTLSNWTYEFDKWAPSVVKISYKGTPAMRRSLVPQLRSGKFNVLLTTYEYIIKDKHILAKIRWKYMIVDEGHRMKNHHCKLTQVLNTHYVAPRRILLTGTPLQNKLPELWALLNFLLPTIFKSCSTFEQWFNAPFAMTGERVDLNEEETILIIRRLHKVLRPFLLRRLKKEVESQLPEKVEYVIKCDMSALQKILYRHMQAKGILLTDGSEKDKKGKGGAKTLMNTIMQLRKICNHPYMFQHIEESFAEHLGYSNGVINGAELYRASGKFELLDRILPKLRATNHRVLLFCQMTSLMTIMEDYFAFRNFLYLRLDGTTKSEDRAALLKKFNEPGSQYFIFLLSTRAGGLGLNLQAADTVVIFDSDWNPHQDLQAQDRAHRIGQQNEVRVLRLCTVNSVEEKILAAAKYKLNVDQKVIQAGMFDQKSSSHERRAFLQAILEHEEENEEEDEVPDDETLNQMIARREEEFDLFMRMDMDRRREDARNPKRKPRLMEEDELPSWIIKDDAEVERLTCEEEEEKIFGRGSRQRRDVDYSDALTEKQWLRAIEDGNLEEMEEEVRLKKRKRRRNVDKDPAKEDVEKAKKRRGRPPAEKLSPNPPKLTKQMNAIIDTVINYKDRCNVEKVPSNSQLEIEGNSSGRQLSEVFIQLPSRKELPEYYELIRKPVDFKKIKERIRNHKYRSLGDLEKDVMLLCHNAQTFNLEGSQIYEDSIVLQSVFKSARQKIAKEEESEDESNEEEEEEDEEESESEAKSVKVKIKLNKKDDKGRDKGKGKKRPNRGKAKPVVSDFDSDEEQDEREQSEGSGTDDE
Sequence of CHD4 (Q14839 whole entry): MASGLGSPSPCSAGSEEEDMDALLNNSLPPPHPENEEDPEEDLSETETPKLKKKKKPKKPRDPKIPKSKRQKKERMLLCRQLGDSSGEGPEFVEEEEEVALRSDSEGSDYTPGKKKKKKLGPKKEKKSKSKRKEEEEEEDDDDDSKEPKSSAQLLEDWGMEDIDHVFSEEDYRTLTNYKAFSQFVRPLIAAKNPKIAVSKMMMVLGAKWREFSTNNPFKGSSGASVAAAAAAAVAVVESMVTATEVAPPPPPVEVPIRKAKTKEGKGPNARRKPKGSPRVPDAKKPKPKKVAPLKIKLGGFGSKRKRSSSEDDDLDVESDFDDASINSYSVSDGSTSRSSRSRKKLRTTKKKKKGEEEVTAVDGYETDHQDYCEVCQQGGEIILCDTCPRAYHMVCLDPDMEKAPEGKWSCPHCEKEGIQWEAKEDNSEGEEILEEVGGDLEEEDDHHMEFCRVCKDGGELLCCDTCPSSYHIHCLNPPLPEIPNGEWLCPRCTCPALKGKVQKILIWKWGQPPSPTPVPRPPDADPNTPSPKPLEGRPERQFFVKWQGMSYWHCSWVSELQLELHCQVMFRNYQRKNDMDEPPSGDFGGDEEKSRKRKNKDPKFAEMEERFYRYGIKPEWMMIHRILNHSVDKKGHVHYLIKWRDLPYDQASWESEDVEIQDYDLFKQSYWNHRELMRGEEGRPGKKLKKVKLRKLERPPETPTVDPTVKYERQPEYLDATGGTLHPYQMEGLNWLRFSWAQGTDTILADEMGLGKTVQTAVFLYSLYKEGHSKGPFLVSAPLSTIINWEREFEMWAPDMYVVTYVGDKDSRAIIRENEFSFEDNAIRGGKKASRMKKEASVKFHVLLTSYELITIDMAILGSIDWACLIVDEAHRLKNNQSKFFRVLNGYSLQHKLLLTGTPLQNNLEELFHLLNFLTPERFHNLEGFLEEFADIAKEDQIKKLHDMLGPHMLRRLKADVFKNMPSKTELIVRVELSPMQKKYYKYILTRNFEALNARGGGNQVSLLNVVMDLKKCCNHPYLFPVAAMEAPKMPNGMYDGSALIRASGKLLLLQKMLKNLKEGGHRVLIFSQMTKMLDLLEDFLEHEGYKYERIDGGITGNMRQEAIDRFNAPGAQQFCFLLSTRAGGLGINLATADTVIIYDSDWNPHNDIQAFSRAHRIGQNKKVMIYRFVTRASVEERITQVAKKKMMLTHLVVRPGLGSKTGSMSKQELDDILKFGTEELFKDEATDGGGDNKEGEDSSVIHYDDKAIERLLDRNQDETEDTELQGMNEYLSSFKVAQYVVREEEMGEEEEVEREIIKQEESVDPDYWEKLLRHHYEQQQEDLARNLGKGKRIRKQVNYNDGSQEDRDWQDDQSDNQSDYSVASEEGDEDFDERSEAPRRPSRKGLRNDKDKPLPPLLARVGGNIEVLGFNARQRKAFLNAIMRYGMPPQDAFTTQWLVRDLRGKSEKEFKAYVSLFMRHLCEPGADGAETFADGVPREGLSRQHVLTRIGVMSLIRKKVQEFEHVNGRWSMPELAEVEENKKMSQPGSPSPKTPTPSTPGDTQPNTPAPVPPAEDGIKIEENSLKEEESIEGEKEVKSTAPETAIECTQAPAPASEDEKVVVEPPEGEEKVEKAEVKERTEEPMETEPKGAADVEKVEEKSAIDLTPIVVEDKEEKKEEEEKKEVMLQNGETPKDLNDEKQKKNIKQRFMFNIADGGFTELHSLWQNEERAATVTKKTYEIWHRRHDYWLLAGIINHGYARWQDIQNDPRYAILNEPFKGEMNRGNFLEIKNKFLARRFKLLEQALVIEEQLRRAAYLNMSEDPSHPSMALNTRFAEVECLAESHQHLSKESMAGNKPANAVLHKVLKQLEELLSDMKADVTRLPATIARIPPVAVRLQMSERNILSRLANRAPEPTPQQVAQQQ

With `CN(C)S(=O)(=O)c1cccc(C(=O)NCC(=O)Nc2nc(-c3ccccc3)cs2)c1` [FHT-185], the IC50 worked out at 6040 ± 1040 nM in experiment [1] and 2500 ± 500 nM in experiment [2].

With `COC[C@H](NC(=O)c1ccn(S(C)(=O)=O)c1)C(=O)Nc1nc(-c2cccc(-c3ccn(C)n3)c2)cs1` [FHT-2344], the figures for the IC50 in experiment [1] (DNA-stimulated ATPase), in experiment [2] and in experiment [3] were 26 ± 6 nM, 13 ± 3 nM and more than 200000 nM, respectively.

(Values after article doi:10.1101/2023.09.11.557162v4 (biorxiv, 2025).)
